# According to patent publication US20090054304A1, “HETEROCYCLIC MODULATORS OF TGR5 FOR TREATMENT OF DISEASE” (KALYPSYS, INC., priority 2007, published 2009):
# Biological target: T1, human TGR5 (Homo sapiens, UniProt Q8TDU6)
# T1 construct: expressed in transfected cells
# T1 sequence (Q8TDU6 1-330): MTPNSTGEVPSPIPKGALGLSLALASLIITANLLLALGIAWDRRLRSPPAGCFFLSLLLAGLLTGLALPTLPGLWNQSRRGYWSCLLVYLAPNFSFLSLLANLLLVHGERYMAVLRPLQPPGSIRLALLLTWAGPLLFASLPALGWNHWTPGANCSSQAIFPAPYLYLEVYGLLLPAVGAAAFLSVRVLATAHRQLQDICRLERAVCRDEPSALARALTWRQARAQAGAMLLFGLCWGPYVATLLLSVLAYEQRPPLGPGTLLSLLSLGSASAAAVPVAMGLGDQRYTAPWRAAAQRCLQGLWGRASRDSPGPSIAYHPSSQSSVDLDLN
# Experiment: cAMP production assay in HEK293 cells stably expressing TGR5 (LANCE TR-FRET)
# Format: cell-based
# Conditions: 30 minutes stimulation, 1 mM IBMX, read-out: cAMP Production in 293-TGR5 Cells
# Experimental: HEK293 cells stably expressing TGR5 (HEK293-TGR5) were established by stably transfecting HEK-293 cells with an expression vector (pcDNA 3.1, Invetrogen) inserted with human TGR5 cDNA using Fugene6 (Roche, Indianapolis, Ind.) according to conventional methods. Cells were grown in DMEM (invitrogen, Carlsbad, Calif.) supplemented with 10% FBS, 1% penicillin/streptomycin under geneticin selection. The presence of TGR5 transcripts in these cells was confirmed using branched DNA (bDNA, Genospectra, Inc., Fremont Calif.) following the manufacturer's protocol and using specific probes for human TGR5. cAMP production assay was performed in high throughput 1536 well format using LANCE cAMP detection kit (Perkin Elmer Inc., Boston, Mass.) according to the manufacturer's protocol. Briefly, HEK293-TGR5 cells were harvested using non-enzymatic cell dissociation buffer (Invitrogen, Carlsbad, Calif.) and suspended in DMEM supplemented with 0.1% FBS at a density of 800,000 cells/ml. Alexa antibody was added to the cell suspension, and 4 ul of the mixture was dispensed in white opaque tissue culture treated Greiner 1536 well plates (USA Scientific, Inc., Ocala, Fla.). After an overnight incubation at 37C in an atmosphere of 10% CO2 and 95% humidity, 1 ul of 5 mM IBMX (Sigma, St. Louis, Mo.) solution in DMEM was dispensed for a final concentration of 1 mM. Cells were then stimulated with test compounds for 30 minutes, after which time 5 ul of detection reagent was added and incubated for 1-7 hrs at room temperature. TR-FRET signal was detected using the Viewlux (Perkin Elmer Inc., Boston Mass.). EC50 values were determined using Graph Pad Prizm analysis (GraphPad Software, Inc). The EC50 values for a wide range of bile acids generated from this assay were in agreement with the values published in the scientific literature. […] The symbol (+) denotes an EC50 value of ≦10 μM while the symbol (−) denotes an EC50 value of >10 μM (see Table 1).
row,SMILES,EC50 [µM]
1,"CC(C)n1ncc2cc(CNCc3ccc(C(F)(F)F)cc3)c(-c3ccsc3)nc21 [Example 1, 1-(1-isopropyl-6-(thiophen-3-yl)-1H-pyrazolo[3,4-b]pyridin-5-yl)-N-(4-(trifluoromethyl)benzyl)methanamine]",≤ 10
2,"CC(C)n1ncc2cc(CNCCc3ccc(Br)cc3)c(-c3ccsc3)nc21 [Example 2, 2-(4-Bromophenyl)-N-((1-isopropyl-6-(thiophen-3-yl)-1H-pyrazolo[3,4-b]pyridin-5-yl)methyl)ethanamine]",≤ 10
3,"Cc1nn(C)c2nc(-c3ccsc3)c(CNCc3ccc(C(F)(F)F)cc3)cc12 [Example 4, 1-(1,3-dimethyl-6-(thiophen-3-yl)-1H-pyrazolo[3,4-b]pyridin-5-yl)-N-(4-(trifluoromethyl)benzyl)methanamine]",> 10
4,"Brc1ccc(CCNCc2cc3sccc3nc2-c2ccsc2)cc1 [Example 5, 2-(4-bromophenyl)-N-((5-(thiophen-3-yl)thieno[3,2-b]pyridin-6-yl)methyl)ethanamine]",≤ 10
5,"FC(F)(F)c1ccc(CNCc2cc3ccsc3nc2-c2ccsc2)cc1 [Example 7, 1-(6-(thiophen-3-yl)thieno[2,3-b]pyridin-5-yl)-N-(4-(trifluoromethyl)benzyl)methanamine]",≤ 10
6,"COc1cc2nc(-c3ccsc3)c(CNCCc3ccc(Br)cc3)cc2cn1 [Example 9, 2-(4-bromophenyl)-N-((7-methoxy-2-(thiophen-3-yl)-1,6-naphthyridin-3-yl)methyl)ethanamine]",≤ 10

# Other lines, results leading:
row,EC50 [µM],SMILES
1,≤ 10,"Cc1nn(C)c2nc(-c3ccsc3)c(CNCCc3ccc(Br)cc3)cc12 [Example 3, 2-(4-bromophenyl)-N-((1,3-dimethyl-6-(thiophen-3-yl)-1H-pyrazolo[3,4-b]pyridin-5-yl)methyl)ethanamine]"
2,≤ 10,"Brc1ccc(CCNCc2cc3ccsc3nc2-c2ccsc2)cc1 [Example 6, 2-(4-bromophenyl)-N-((6-(thiophen-3-yl)thieno[2,3-b]pyridin-5-yl)methyl)ethanamine]"
3,≤ 10,"Brc1ccc(CCNCc2cc3ccncc3nc2-c2ccsc2)cc1 [Example 8, 2-(4-bromophenyl)-N-((2-(thiophen-3-yl)-1,7-naphthyridin-3-yl)methyl)ethanamine]"
4,> 10,"O=c1cc2nc(-c3ccsc3)c(CNCCc3ccc(Br)cc3)cc2c[nH]1 [Example 10, 3-((4-bromophenethylamino)methyl)-2-(thiophen-3-yl)-1,6-naphthyridin-7(6H)-one]"
5,≤ 10,"COc1ccc2cc(CNCCc3ccc(Br)cc3)c(-c3ccsc3)nc2n1 [Example 11, 2-(4-bromophenyl)-N-((7-methoxy-2-(thiophen-3-yl)-1,8-naphthyridin-3-yl)methyl)ethanamine]"
6,≤ 10,"O=c1ccc2cc(CNCCc3ccc(Br)cc3)c(-c3ccsc3)nc2[nH]1 [Example 12, 6-((4-bromophenethylamino)methyl)-7-(thiophen-3-yl)-1,8-naphthyridin-2(1H)-one]"
